Source: ChEMBL document CHEMBL1124775 (J Med Chem, 1990)

Species: Rattus norvegicus
Experiment: Binding of [3H]diprenorphine to rat brain membranes was evaluated and the dissociation constant (KD) was determined.
Design: species or system Membrane

C=CCN1CC[C@]23c4c5ccc(O)c4O[C@H]2C(=O)CC[C@@]3(O)[C@H]1C5 [NALOXONE]
Kd: 10 nM
